# Laboratory results from ChEMBL document CHEMBL1926642, “Relevance of the C-5 position to schweinfurthin induced cytotoxicity” (2011).
# Tests used:
# Assay type in all cases: functional
# MDA-MB-468 = test: Growth inhibition of human MDA-MB-468 cells after 48 hrs by sulforhodamine B assay; settings: MDA-MB-468, 48 h
# NCI-H460 = test: Growth inhibition of human NCI-H460 cells after 48 hrs by sulforhodamine B assay; settings: NCI-H460, 48 h
# HCT-116 = test: Growth inhibition of human HCT116 cells after 48 hrs by sulforhodamine B assay; settings: HCT-116, 48 h
# UO-31 = test: Growth inhibition of human UO31 cells after 48 hrs by sulforhodamine B assay; settings: UO-31, 48 h
# UACC-257 = test: Growth inhibition of human UACC257 cells after 48 hrs by sulforhodamine B assay; settings: UACC-257, 48 h
# M14 = test: Growth inhibition of human M14 cells after 48 hrs by sulforhodamine B assay; settings: M14, 48 h
# A549 = test: Growth inhibition of human A549 cells after 48 hrs by sulforhodamine B assay; settings: A549, 48 h
# T47D = test: Growth inhibition of human T47D cells after 48 hrs by sulforhodamine B assay
# SF-539 = test: Growth inhibition of human SF539 cells after 48 hrs by sulforhodamine B assay; settings: SF-539, 48 h
# CCRF-CEM = test: Growth inhibition of human CCRF-CEM cells after 48 hrs by sulforhodamine B assay
# A498 = test: Growth inhibition of human A498 cells after 48 hrs by sulforhodamine B assay; settings: A498, 48 h
# OVCAR-8 = test: Growth inhibition of human OVCAR8 cells after 48 hrs by sulforhodamine B assay; settings: OVCAR-8, 48 h
# SW-620 = test: Growth inhibition of human SW620 cells after 48 hrs by sulforhodamine B assay; settings: SW-620, 48 h
# SK-OV-3 = test: Growth inhibition of human SKOV3 cells after 48 hrs by sulforhodamine B assay; settings: SK-OV-3, 48 h
# NCI-H322M = test: Growth inhibition of human NCI-H322M cells after 48 hrs by sulforhodamine B assay
# SF-295 = test: Growth inhibition of human SF295 cells after 48 hrs by sulforhodamine B assay; settings: SF-295, 48 h
# SN12C = test: Growth inhibition of human SN12C cells after 48 hrs by sulforhodamine B assay
# RPMI-8226 = test: Growth inhibition of human RPMI8226 cells after 48 hrs by sulforhodamine B assay; settings: RPMI-8226, 48 h
# UACC-62 = test: Growth inhibition of human UACC62 cells after 48 hrs by sulforhodamine B assay; settings: UACC-62, 48 h
# K562 = test: Growth inhibition of human K562 cells after 48 hrs by sulforhodamine B assay; settings: K562, 48 h
# OVCAR-5 = test: Growth inhibition of human OVCAR5 cells after 48 hrs by sulforhodamine B assay; settings: OVCAR-5, 48 h
# HCT-15 = test: Growth inhibition of human HCT15 cells after 48 hrs by sulforhodamine B assay; settings: HCT-15, 48 h
# PC-3 = test: Growth inhibition of human PC3 cells after 48 hrs by sulforhodamine B assay; settings: PC-3, 48 h
# SK-MEL-2 = test: Growth inhibition of human SK-MEL-2 cells after 48 hrs by sulforhodamine B assay; settings: SK-MEL-2, 48 h
# Malme-3M = test: Growth inhibition of human MALME-3M cells after 48 hrs by sulforhodamine B assay
# ACHN = test: Growth inhibition of human ACHN cells after 48 hrs by sulforhodamine B assay
# SNB-75 = test: Growth inhibition of human SNB75 cells after 48 hrs by sulforhodamine B assay; settings: SNB-75, 48 h
# OVCAR-4 = test: Growth inhibition of human OVCAR4 cells after 48 hrs by sulforhodamine B assay; settings: OVCAR-4, 48 h
# HT-29 = test: Growth inhibition of human HT-29 cells after 48 hrs by sulforhodamine B assay; settings: HT-29, 48 h
# KM12 = test: Growth inhibition of human KM12 cells after 48 hrs by sulforhodamine B assay; settings: KM12, 48 h
# MDA-MB-435 = test: Growth inhibition of human MDA-MB-435 cells after 48 hrs by sulforhodamine B assay; settings: MDA-MB-435, 48 h
# NCI-H23 = test: Growth inhibition of human NCI-H23 cells after 48 hrs by sulforhodamine B assay; settings: NCI-H23, 48 h
structure (smiles),measurement,setting,value
COc1cc(/C=C/c2ccc3c(c2)C[C@@H]2C(C)(C)[C@H](O)CC[C@@]2(C)O3)cc(O)c1C/C=C(\C)CCC=C(C)C,GI50,MDA-MB-468,11 µM
same,LC50,MDA-MB-468,72.4 µM
same,TGI,MDA-MB-468; read-out: pTGI (converted),28.2 µM
same,GI50,NCI-H460,7.41 µM
same,LC50 (concentration killing 50% of cells),NCI-H460,55 µM
same,TGI,NCI-H460; read-out: pTGI (converted),21.9 µM
same,GI50,HCT-116,7.76 µM
same,LC50,HCT-116,45.7 µM
same,TGI,HCT-116; read-out: pTGI (converted),20.4 µM
same,GI50,UO-31,5.01 µM
same,LC50,UO-31,64.6 µM
same,TGI,UO-31; read-out: pTGI (converted),20 µM
same,GI50,UACC-257,22.9 µM
same,LC50,UACC-257,> 100 µM
same,TGI,UACC-257; read-out: pTGI (converted),55 µM
same,GI50,M14,13.8 µM
same,LC50,M14,56.2 µM
same,TGI,M14; read-out: pTGI (converted),27.5 µM
same,LC50,A549,> 100 µM
same,GI50,A549; read-out: GI50,13.2 µM
same,GI50,A549; read-out: pGI50 (converted),13.2 µM
same,TGI,A549; read-out: pTGI (converted),39.8 µM
same,GI50,T47D,20.9 µM
same,LC50,T47D,> 100 µM
same,TGI,T47D; read-out: pTGI (converted),58.9 µM
same,GI50,SF-539,4.17 µM
same,LC50,SF-539,57.5 µM
same,TGI,SF-539; read-out: pTGI (converted),17.4 µM
same,GI50,CCRF-CEM,8.32 µM
same,LC50,CCRF-CEM,> 100 µM
same,TGI,CCRF-CEM; read-out: pTGI (converted),> 100 µM
same,GI50,A498,46.8 µM
same,LC50,A498,> 100 µM
same,TGI,A498; read-out: pTGI (converted),> 100 µM
same,GI50,OVCAR-8,25.1 µM
same,LC50,OVCAR-8,> 100 µM
same,TGI,OVCAR-8; read-out: pTGI (converted),74.1 µM
same,GI50,SW-620,11.7 µM
same,LC50,SW-620,53.7 µM
same,TGI,SW-620; read-out: pTGI (converted),25.1 µM
same,GI50,SK-OV-3,22.9 µM
same,LC50,SK-OV-3,> 100 µM
same,TGI,SK-OV-3; read-out: pTGI (converted),> 100 µM
same,GI50,NCI-H322M,26.3 µM
same,LC50,NCI-H322M,> 100 µM
same,TGI,NCI-H322M; read-out: pTGI (converted),87.1 µM
same,LC50,SF-295,38.9 µM
same,GI50,SF-295; read-out: GI50,1.66 µM
same,GI50,SF-295; read-out: pGI50 (converted),1.66 µM
same,TGI,SF-295; read-out: pTGI (converted),5.89 µM
same,GI50,SN12C,18.2 µM
same,LC50,SN12C,70.8 µM
same,TGI,SN12C; read-out: pTGI (converted),36.3 µM
same,GI50,RPMI-8226,3.09 µM
same,LC50,RPMI-8226,> 100 µM
same,TGI,RPMI-8226; read-out: pTGI (converted),14.5 µM
same,GI50,UACC-62,12.9 µM
same,LC50 (50% lethal concentration),UACC-62,70.8 µM
same,TGI,UACC-62; read-out: pTGI (converted),30.2 µM
same,GI50,K562,5.5 µM
same,LC50,K562,> 100 µM
same,TGI,K562; read-out: pTGI (converted),33.9 µM
same,GI50,OVCAR-5,27.5 µM
same,LC50,OVCAR-5,> 100 µM
same,TGI,OVCAR-5; read-out: pTGI (converted),79.4 µM
same,GI50,HCT-15,6.31 µM
same,LC50,HCT-15,58.9 µM
same,TGI,HCT-15; read-out: pTGI (converted),20.9 µM
same,GI50,PC-3,8.51 µM
same,CC50,PC-3; read-out: pLC50 (the source's name) (converted),> 100 µM
same,TGI,PC-3; read-out: pTGI (converted),56.2 µM
same,GI50,SK-MEL-2,15.8 µM
same,LC50,SK-MEL-2,81.3 µM
same,TGI,SK-MEL-2; read-out: pTGI (converted),35.5 µM
same,GI50,Malme-3M,17.8 µM
same,LC50,Malme-3M,91.2 µM
same,TGI,Malme-3M; read-out: pTGI (converted),40.7 µM
same,GI50,ACHN,20 µM
same,LC50,ACHN,> 100 µM
same,TGI,ACHN; read-out: pTGI (converted),46.8 µM
same,GI50,SNB-75,5.37 µM
same,LC50,SNB-75,> 100 µM
same,TGI,SNB-75; read-out: pTGI (converted),42.7 µM
same,GI50,OVCAR-4,20.9 µM
same,LC50,OVCAR-4,> 100 µM
same,TGI,OVCAR-4; read-out: pTGI (converted),83.2 µM
same,GI50,HT-29,1.95 µM
same,LC50 (concentration killing 50% of cells),HT-29,23.4 µM
same,TGI,HT-29; read-out: pTGI (converted),5.01 µM
same,GI50,KM12,2.63 µM
same,LC50,KM12,21.9 µM
same,TGI,KM12; read-out: pTGI (converted),6.46 µM
same,GI50,MDA-MB-435,17.4 µM
same,LC50,MDA-MB-435,81.3 µM
same,TGI,MDA-MB-435; read-out: pTGI (converted),38 µM
same,GI50,NCI-H23,15.1 µM
same,LC50,NCI-H23,60.3 µM
same,TGI,NCI-H23; read-out: pTGI (converted),30.2 µM
